Assay results taken from ChEMBL document CHEMBL1201862, “PubChem BioAssay data set” (2004).
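Values below derive from 48-hour exposures of cells grown in 96-well plates, with endpoints linearly interpolated between the two concentrations bracketing the appropriate inhibition level. At the GI50, growth is halved.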 Active and inactive are the calls of the source. No stated cut-off is given here; in the data, active = GI50 up to about 1.1 µM and inactive = higher.

Legend:
Test in all cases: DTP human tumour cell line panel, 48 h
SF-295 = test system: SF-295
ACHN = test system: ACHN
COLO 205 = test system: COLO 205
DMS-273 = test system: DMS-273
TK-10 = test system: TK-10
U-251 = test system: U-251
MOLT-4 = test system: MOLT-4
SNB-78 = test system: SNB-78
SN12C = test system: SN12C
OVCAR-3 = test system: OVCAR-3
CCRF-CEM = test system: CCRF-CEM
NCI-H226 = test system: NCI-H226
SK-MEL-2 = test system: SK-MEL-2
OVCAR-8 = test system: OVCAR-8
RXF 393 = test system: RXF 393
SF-268 = test system: SF-268
KM-20L2 = test system: KM-20L2
NCI-H460 = test system: NCI-H460
M19-MEL = test system: M19-MEL
SNB-19 = test system: SNB-19
A498 = test system: A498
SK-MEL-28 = test system: SK-MEL-28
SW-620 = test system: SW-620
M14 = test system: M14
HOP-62 = test system: HOP-62
LXFL 529 = test system: LXFL 529
HL-60 = test system: HL-60
SK-MEL-5 = test system: SK-MEL-5
IGROV-1 = test system: IGROV-1
RXF 631 = test system: RXF 631
HCC 2998 = test system: HCC 2998
SNB-75 = test system: SNB-75
UO-31 = test system: UO-31
OVCAR-4 = test system: OVCAR-4
SK-OV-3 = test system: SK-OV-3
K562 = test system: K562
HT-29 = test system: HT-29
LOX IMVI = test system: LOX IMVI
A549 = test system: A549
HCT-15 = test system: HCT-15
KM12 = test system: KM12
NCI-H522 = test system: NCI-H522
XF498 = test system: XF498
EKVX = test system: EKVX
OVCAR-5 = test system: OVCAR-5
SF-539 = test system: SF-539
RPMI-8226 = test system: RPMI-8226
HOP-92 = test system: HOP-92
DMS-114 = test system: DMS-114
HCT-116 = test system: HCT-116
DLD-1 = test system: DLD-1
NCI-H23 = test system: NCI-H23
UACC-62 = test system: UACC-62
786-0 = test system: 786-0

## CC1(c2cc3c(cc2Br)OCO3)SCCCS1
SF-295
  GI50: 49.1 µM (inactive)
ACHN
  GI50: 41.4 µM (inactive)
COLO 205
  GI50: 51.4 µM (inactive)
DMS-273
  GI50: 45.2 µM (inactive)
TK-10
  GI50: 33.4 µM (inactive)
U-251
  GI50: 33 µM (inactive)
MOLT-4
  GI50: 24.7 µM (inactive)
SNB-78
  GI50: 24.3 µM (inactive)
SN12C
  GI50: 39.3 µM (inactive)
OVCAR-3
  GI50: 38.4 µM (inactive)
CCRF-CEM
  GI50: 32.1 µM (inactive)
NCI-H226
  GI50: 32.4 µM (inactive)
SK-MEL-2
  GI50: 26.2 µM (inactive)
OVCAR-8
  GI50: 47.5 µM (inactive)
RXF 393
  GI50: 18.3 µM (inactive)
SF-268
  GI50: 44.6 µM (inactive)
KM-20L2
  GI50: 34.4 µM (inactive)
NCI-H460
  GI50: 36.2 µM (inactive)
M19-MEL
  GI50: 39.6 µM (inactive)
SNB-19
  GI50: 47.4 µM (inactive)
A498
  GI50: 58.5 µM (inactive)
SK-MEL-28
  GI50: 78 µM (inactive)
SW-620
  GI50: 42.1 µM (inactive)
M14
  GI50: 38.3 µM (inactive)
HOP-62
  GI50: 31.1 µM (inactive)
LXFL 529
  GI50: 45.7 µM (inactive)
HL-60
  GI50: 25.1 µM (inactive)
SK-MEL-5
  GI50: 20.4 µM (inactive)
IGROV-1
  GI50: > 100 µM (inactive)
RXF 631
  GI50: 44.9 µM (inactive)
HCC 2998
  GI50: 16.4 µM (inactive)
SNB-75
  GI50: 40.6 µM (inactive)
UO-31
  GI50: 24.2 µM (inactive)
OVCAR-4
  GI50: 36.3 µM (inactive)
SK-OV-3
  GI50: > 100 µM (inactive)
K562
  GI50: 31 µM (inactive)
HT-29
  GI50: 32.1 µM (inactive)
LOX IMVI
  GI50: 40 µM (inactive)
A549
  GI50: 34.5 µM (inactive)
HCT-15
  GI50: 38.7 µM
KM12
  GI50: 51.4 µM (inactive)
NCI-H522
  GI50: 1.84 µM (inactive)
XF498
  GI50: 29.5 µM (inactive)
EKVX
  GI50: 77.1 µM (inactive)
OVCAR-5
  GI50: 42.3 µM (inactive)
SF-539
  GI50: 36.5 µM (inactive)
RPMI-8226
  GI50: 27.4 µM (inactive)
HOP-92
  GI50: 17.7 µM (inactive)
DMS-114
  GI50: 32.2 µM (inactive)
HCT-116
  GI50: 31.7 µM (inactive)
DLD-1
  GI50: 34.8 µM (inactive)
NCI-H23
  GI50: 13.3 µM (inactive)
UACC-62
  GI50: 50.6 µM (inactive)
786-0
  GI50: 44.3 µM (inactive)
